Source: patent publication US20250312499A1, “KISSPEPTIN RECEPTOR (KISS1R) TARGETED THERAPEUTICS AND USES THEREOF” (priority 2024, published 2025)
pKi: −log10 of the molar value. Numbered stars: 1 amine (or outer) side, 2 acyl side, 3 side chain; on linkers, the order of the positions; unused ones are H or OH. Square brackets hold non-standard residues; d marks the D form. Peptide text beside a SMILES is read from it. * marks the point of attachment. DOTA = O=C(O)CN1CCN(CC(=O)O)CCN(CC(=O)*)CCN(CC(=O)O)CC1; Gly(N-(3-F-4-Me-benzyl)) = Cc1ccc(CNCC(=O)*)cc1F; Propanoyl(3-(MeO(CH2CH2O)2)) = COCCOCCOCCC(=O)*; Gly(Nα-4-MeO-benzyl) = COc1ccc(CNCC(=O)*)cc1; Api(1-amidino) = N=C(N)N1CCC(N)(C(=O)O)CC1; X14 = O=C([C@H]1CC[C@@H](CN[*:1])CC1)[*:2]; Hydrocinnamoyl(4-I) = O=C(CCc1ccc(I)cc1)*; Phe(4-CN) = N#Cc1ccc(C[C@H](N)C(=O)O)cc1; Phe(3-F) = N[C@@H](Cc1cccc(F)c1)C(=O)O; d2Nal = N[C@H](Cc1ccc2ccccc2c1)C(=O)O; X1 = O=C(CN1CCC(N[*:1])CC1)[*:2]; dCya = N[C@H](CS(=O)(=O)O)C(=O)O; 4Pal = N[C@@H](Cc1ccncc1)C(=O)O; 4Amb = NCc1ccc(C(=O)O)cc1; Api = NC1(C(=O)O)CCNCC1; X13 = O=C(CNCC1CCSCC1)*; PEG2 = NCCOCCOCCC(=O)O; Ahx = NCCCCCC(=O)O; azaGly = NNC(=O)O

These compounds were tested against human kisspeptin receptor (Homo sapiens (Human), UniProt Q969F8) (assay: Human KISS1R binding assay (membrane competition binding)). Conditions: 90 min at room temperature; competition with 0.2 nM [125I]-metastin (45-54); Flp-In T-Rex 293 kisspeptin membranes; metal complexes nonradioactive Ga, In, Lu; read-out: hKiSSR Binding Ki (90 min).
Sequence of human kisspeptin receptor (Q969F8 whole entry): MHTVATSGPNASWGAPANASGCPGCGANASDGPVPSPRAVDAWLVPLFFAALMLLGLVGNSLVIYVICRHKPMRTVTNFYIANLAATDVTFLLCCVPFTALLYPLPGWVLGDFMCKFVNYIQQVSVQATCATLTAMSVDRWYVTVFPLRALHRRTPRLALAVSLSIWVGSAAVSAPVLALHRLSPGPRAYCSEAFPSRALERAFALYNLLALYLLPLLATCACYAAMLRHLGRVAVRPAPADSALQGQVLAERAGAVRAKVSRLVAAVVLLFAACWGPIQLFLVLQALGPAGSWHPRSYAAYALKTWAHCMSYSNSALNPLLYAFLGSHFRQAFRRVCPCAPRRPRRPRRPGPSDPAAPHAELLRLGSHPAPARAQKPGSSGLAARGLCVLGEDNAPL
How it was run: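 Membranes from tetracycline-induced (48 h) Flp-In T-Rex 293 cells expressing receptor, 5–10 μg, incubated 90 min at room temperature with 0.2 nM [125I]-metastin (45-54) and competitor (typically 0–10,000 nM) in Tris/Mg/Ca/EGTA/0.1% BSA, pH 7.4. Filtration, washing, counting; Ki by non-linear regression.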

Row | Structure (SMILES) | pKi
1 | Cc1ccc(CNCC(=O)N2CCC(NC(=O)[C@H](CC(C)C)NC(=O)NNC(=O)[C@H](Cc3ccccc3)NC(=O)CN3CCC(NC(=O)CN4CCN(CC(=O)O)CCN(CC(=O)O)CCN(CC(=O)O)CC4)CC3)(C(=O)N[C@@H](Cc3ccc(C#N)cc3)C(N)=O)CC2)cc1F [Compound 244] ({DOTA}-[X1]F[azaGly]L[Api](Gly(N-(3-F-4-Me-benzyl)))[Phe(4-CN)]-NH2) | > 8.00
2 | Cc1ccc(CNCC(=O)N2CCC(NC(=O)[C@H](CC(C)C)NC(=O)NNC(=O)[C@H](Cc3ccccc3)NC(=O)[C@@H](NC(=O)[C@H](CC(N)=O)NC(=O)[C@@H](Cc3c[nH]c4ccccc34)NC(=O)[C@@H](Cc3ccc(O)cc3)NC(=O)CCCCCNC(=O)[C@H](Cc3ccc(O)cc3)NC(=O)CNC(=O)c3ccc(CNC(=O)CN4CCN(CC(=O)O)CCN(CC(=O)O)CCN(CC(=O)O)CC4)cc3)[C@@H](C)O)(C(=O)N[C@@H](Cc3c[nH]c4ccccc34)C(N)=O)CC2)cc1F [Compound 149] ({DOTA-4Amb}-GY[Ahx][dY][dW]NTF[azaGly]L[Api](Gly(N-(3-F-4-Me-benzyl)))W-NH2) | > 8.00
3 | CC(C)C[C@H](NC(=O)NNC(=O)[C@H](Cc1ccccc1)NC(=O)[C@@H](NC(=O)[C@H](CC(N)=O)NC(=O)[C@H](CCCCNC(=O)CN1CCN(CC(=O)O)CCN(CC(=O)O)CCN(CC(=O)O)CC1)NC(=O)[C@@H](Cc1ccc(O)cc1)NC(=O)CCOCCOCCNC(=O)CCc1ccc(I)cc1)[C@@H](C)O)C(=O)NC1(C(=O)N[C@@H](Cc2ccc(C#N)cc2)C(N)=O)CCN(C(=N)N)CC1 [Compound 325] ({Hydrocinnamoyl(4-I)-PEG2}-[dY]K(DOTA)NTF[azaGly]L[Api(1-amidino)][Phe(4-CN)]-NH2) | > 8.00
4 | Cc1ccc(CNCC(=O)N2CCC(NC(=O)[C@H](CC(C)C)NC(=O)NNC(=O)[C@H](Cc3ccccc3)NC(=O)[C@@H](NC(=O)[C@H](CC(N)=O)NC(=O)[C@@H](Cc3c[nH]c4ccccc34)NC(=O)[C@H](Cc3ccc(O)cc3)NC(=O)CNC(=O)CN3CCN(CC(=O)O)CCN(CC(=O)O)CCN(CC(=O)O)CC3)[C@@H](C)O)(C(=O)N[C@@H](Cc3c[nH]c4ccccc34)C(N)=O)CC2)cc1F [Compound 151] ({DOTA}-GY[dW]NTF[azaGly]L[Api](Gly(N-(3-F-4-Me-benzyl)))W-NH2) | > 8.00
5 | Cc1ccc(CNCC(=O)N2CCC(NC(=O)[C@H](CC(C)C)NC(=O)NNC(=O)[C@H](Cc3cccc(F)c3)NC(=O)[C@@H](NC(=O)[C@H](CC(N)=O)NC(=O)[C@H](CCC(=O)O)NC(=O)[C@H]3CC[C@@H](CNC(=O)CN4CCN(CC(=O)O)CCN(CC(=O)O)CCN(CC(=O)O)CC4)CC3)[C@@H](C)O)(C(=O)N[C@@H](Cc3ccncc3)C(N)=O)CC2)cc1F [Compound 170] ({DOTA}-[X14]ENT[Phe(3-F)][azaGly]L[Api](Gly(N-(3-F-4-Me-benzyl)))[4Pal]-NH2) | > 8.00
6 | COCCOCCOCCC(=O)N[C@@H](CCCCNC(=O)CN1CCN(CC(=O)O)CCN(CC(=O)O)CCN(CC(=O)O)CC1)C(=O)N[C@@H](CC(N)=O)C(=O)N[C@H](C(=O)N[C@@H](Cc1ccccc1)C(=O)NNC(=O)N[C@@H](CC(C)C)C(=O)NC1(C(=O)N[C@@H](Cc2ccncc2)C(N)=O)CCN(C(=O)CNCc2ccc(C)c(F)c2)CC1)[C@@H](C)O [Compound 255] ({Propanoyl(3-(MeO(CH2CH2O)2))}-K(DOTA)NTF[azaGly]L[Api](Gly(N-(3-F-4-Me-benzyl)))[4Pal]-NH2) | > 8.00
7 | CC(C)C[C@H](NC(=O)NNC(=O)[C@H](Cc1ccccc1)NC(=O)[C@@H](NC(=O)[C@H](CC(N)=O)NC(=O)[C@@H](Cc1ccc2ccccc2c1)NC(=O)[C@@H](Cc1ccc(O)cc1)NC(=O)CCCCCNC(=O)CN1CCN(CC(=O)O)CCN(CC(=O)O)CCN(CC(=O)O)CC1)[C@@H](C)O)C(=O)NC1(C(=O)N[C@H](Cc2c[nH]c3ccccc23)C(N)=O)CCN(C(=O)CNCC2CCSCC2)CC1 [Compound 375] ({DOTA-Ahx}-[dY][d2Nal]NTF[azaGly]L[Api](X13)[dW]-NH2) | < 7.00
8 | Cc1ccc(CNCC(=O)N2CCC(NC(=O)[C@H](CC(C)C)NC(=O)NNC(=O)[C@H](Cc3ccccc3)NC(=O)[C@@H](NC(=O)[C@H](CC(N)=O)NC(=O)[C@@H](Cc3c[nH]c4ccccc34)NC(=O)[C@@H](Cc3c[nH]cn3)NC(=O)[C@@H](Cc3ccc(O)cc3)NC(=O)CN3CCC(NC(=O)CN4CCN(CC(=O)O)CCN(CC(=O)O)CCN(CC(=O)O)CC4)CC3)[C@@H](C)O)(C(=O)N[C@@H](Cc3c[nH]c4ccccc34)C(N)=O)CC2)cc1F [Compound 33] ({DOTA}-[X1][dY][dH][dW]NTF[azaGly]L[Api](Gly(N-(3-F-4-Me-benzyl)))W-NH2) | > 8.00
9 | CC(C)C[C@H](NC(=O)NNC(=O)[C@H](Cc1ccccc1)NC(=O)[C@@H](NC(=O)[C@H](CC(N)=O)NC(=O)[C@H](CCCCNC(=O)CN1CCN(CC(=O)O)CCN(CC(=O)O)CCN(CC(=O)O)CC1)NC(=O)[C@@H](Cc1ccc(O)cc1)NC(=O)CCOCCOCCNC(=O)CCc1ccc(I)cc1)[C@@H](C)O)C(=O)NC1(C(=O)N[C@@H](Cc2c[nH]c3ccccc23)C(N)=O)CCN(C(=N)N)CC1 [Compound 196] ({Hydrocinnamoyl(4-I)-PEG2}-[dY]K(DOTA)NTF[azaGly]L[Api(1-amidino)]W-NH2) | > 8.00
10 | COc1ccc(CNCC(=O)N2CCC(NC(=O)[C@H](CC(C)C)NC(=O)NNC(=O)[C@H](Cc3ccccc3)NC(=O)[C@@H](NC(=O)[C@H](CC(N)=O)NC(=O)[C@H](CCC(=O)O)NC(=O)CCCCCNC(=O)CN3CCN(CC(=O)O)CCN(CC(=O)O)CCN(CC(=O)O)CC3)[C@@H](C)O)(C(=O)N[C@@H](Cc3ccccc3)C(N)=O)CC2)cc1 [Compound 236] ({DOTA-Ahx}-ENTF[azaGly]L[Api](Gly(Nα-4-MeO-benzyl))F-NH2) | > 8.00
11 | Cc1ccc(CNCC(=O)N2CCC(NC(=O)[C@H](CC(C)C)N[C@@H](CNC(=O)[C@H](Cc3ccccc3)NC(=O)CCCCCNC(=O)CN3CCN(CC(=O)O)CCN(CC(=O)O)CCN(CC(=O)O)CC3)C(F)(F)F)(C(=O)N[C@@H](Cc3c[nH]c4ccccc34)C(N)=O)CC2)cc1F [Compound 148] | 7.00 to 8.00
12 | Cc1ccc(CNCC(=O)N2CCC(NC(=O)[C@H](CC(C)C)NC(=O)NNC(=O)[C@H](Cc3cccc(F)c3)NC(=O)[C@@H](NC(=O)[C@H](CC(N)=O)NC(=O)[C@H](CCC(=O)O)NC(=O)[C@@H](Cc3ccc(O)cc3)NC(=O)CN3CCC(NC(=O)CN4CCN(CC(=O)O)CCN(CC(=O)O)CCN(CC(=O)O)CC4)CC3)[C@@H](C)O)(C(=O)N[C@@H](Cc3c[nH]c4ccccc34)C(N)=O)CC2)cc1F [Compound 24] ({DOTA}-[X1][dY]ENT[Phe(3-F)][azaGly]L[Api](Gly(N-(3-F-4-Me-benzyl)))W-NH2) | > 8.00
13 | CC(C)C[C@H](NC(=O)NNC(=O)[C@H](Cc1ccccc1)NC(=O)[C@@H](NC(=O)[C@H](CC(N)=O)NC(=O)[C@@H](Cc1ccc2ccccc2c1)NC(=O)[C@@H](Cc1ccc(O)cc1)NC(=O)CCCCCNC(=O)CN1CCN(CC(=O)O)CCN(CC(=O)O)CCN(CC(=O)O)CC1)[C@@H](C)O)C(=O)NC1(C(=O)N[C@@H](Cc2c[nH]c3ccccc23)C(N)=O)CCN(C(=N)N)CC1 [Compound 269] ({DOTA-Ahx}-[dY][d2Nal]NTF[azaGly]L[Api(1-amidino)]W-NH2) | > 8.00
14 | CC(C)C[C@H](NC(=O)NNC(=O)[C@H](Cc1ccccc1)NC(=O)[C@@H](NC(=O)[C@H](CC(N)=O)NC(=O)[C@@H](Cc1ccc2ccccc2c1)NC(=O)[C@H](N)Cc1ccc(O)cc1)[C@@H](C)O)C(=O)NC1(C(=O)N[C@@H](Cc2ccccc2)C(N)=O)CCN(C(=N)N)CC1 [Compound 409] (H-[dY][d2Nal]NTF[azaGly]L[Api(1-amidino)]F-NH2) | > 8.00
15 | CC(C)C[C@H](NC(=O)NNC(=O)[C@H](Cc1ccccc1)NC(=O)[C@@H](NC(=O)[C@H](CC(N)=O)NC(=O)[C@@H](Cc1c[nH]c2ccccc12)NC(=O)[C@@H](Cc1ccc(O)cc1)NC(=O)CCCCCNC(=O)CN1CCN(CC(=O)O)CCN(CC(=O)O)CCN(CC(=O)O)CC1)[C@@H](C)O)C(=O)NC1(C(=O)N[C@@H](Cc2c[nH]c3ccccc23)C(N)=O)CCN(C(=N)N)CC1 [Compound 6] ({DOTA-Ahx}-[dY][dW]NTF[azaGly]L[Api(1-amidino)]W-NH2) | > 8.00
16 | Cc1ccc(CNCC(=O)N2CCC(NC(=O)[C@H](CC(C)C)NC(=O)NNC(=O)[C@H](Cc3ccccc3)NC(=O)CCCCCNC(=O)[C@@H](CS(=O)(=O)O)NC(=O)CN3CCN(CC(=O)O)CCN(CC(=O)O)CCN(CC(=O)O)CC3)(C(=O)N[C@@H](Cc3c[nH]c4ccccc34)C(N)=O)CC2)cc1F [Compound 116] ({DOTA}-[dCya][Ahx]F[azaGly]L[Api](Gly(N-(3-F-4-Me-benzyl)))W-NH2) | > 8.00
17 | CC(C)C[C@H](NC(=O)NNC(=O)[C@H](Cc1ccccc1)NC(=O)[C@@H](NC(=O)[C@H](CC(N)=O)NC(=O)[C@H](Cc1ccncc1)NC(=O)[C@@H](Cc1ccc(O)cc1)NC(=O)CN1CCN(CC(=O)O)CCN(CC(=O)O)CCN(CC(=O)O)CC1)[C@@H](C)O)C(=O)NC1(C(=O)N[C@@H](Cc2ccncc2)C(N)=O)CCN(C(=N)N)CC1 [Compound 273] ({DOTA}-[dY][4Pal]NTF[azaGly]L[Api(1-amidino)][4Pal]-NH2) | 7.00 to 8.00
18 | Cc1ccc(CNCC(=O)N2CCC(NC(=O)c3cc(OCCNC(=O)[C@H](Cc4ccccc4)NC(=O)CN4CCC(NC(=O)CN5CCN(CC(=O)O)CCN(CC(=O)O)CCN(CC(=O)O)CC5)CC4)cc(-c4ccccc4)c3)(C(=O)N[C@@H](Cc3c[nH]c4ccccc34)C(N)=O)CC2)cc1F [Compound 215] | < 7.00
19 | Cc1ccc(CNCC(=O)N2CCC(NC(=O)[C@H](CC(C)C)NC(=O)CNC(=O)[C@H](Cc3ccccc3)NC(=O)CCCCCNC(=O)CN3CCN(CC(=O)O)CCN(CC(=O)O)CCN(CC(=O)O)CC3)(C(=O)N[C@@H](Cc3ccc(O)cc3)C(N)=O)CC2)cc1F [Compound 11] ({DOTA-Ahx}-FGL[Api](Gly(N-(3-F-4-Me-benzyl)))Y-NH2) | > 8.00
